Columns and labels:
ErbB2 = ErbB2 (Homo sapiens (Human), UniProt P04626); test: Enzyme selectivity test (ELISA), ErbB2; type: biochemical
Protocol: (§1) 1) Enzyme reaction substrate Poly(Glu, Tyr) 4:1 was diluted to 20 μg/mL with potassium-free PBS (10 mM sodium phosphate buffer, 150 mM NaCl, pH 7.2-7.4), and the microtiter plate was coated with 125 μL/well and placed at 37° C. for 12-16 hours of reaction. The liquid in the well was discard. The plate was washed three times with T-PBS (potassium-free PBS containing 0.1% Tween-20, 200 μL/well), 5 minutes each time. The ELISA plate was dried in an oven at 37° C. for 1 to 2 hours.
(§2) 2) Reaction buffer (50 mM HEPES pH 7.4, 50 mM MgCl2, 0.5 mM MnCl2, 0.2 mM Na3VO4, 1 mM DTT) diluted ATP solution (49 μL) was added to each well, 1 μL of the compound to be tested was added to each well, and then 50 μL of DDR2 kinase domain recombinant protein diluted in the reaction buffer was added to start the reaction. Two control wells without ATP were set in each experiment. The plate placed on a shaker (100 rpm) at 37° C. for 1 hour of reaction. The liquid in the well was discarded and the plate was washed three times with T-PBS.
(§3) 3) Antibody PY99 dilution solution (the antibody was diluted 1:500 with T-PBS containing BSA 5 mg/mL) was added at 100 μL/well, and shaken on a shaker at 37° C. for 0.5 hour of reaction. The liquid in the well was discarded and the plate was washed three times with T-PBS.
(§4) 4) Horseradish peroxidase labeled goat anti-murine secondary antibody dilution solution (the antibody is diluted 1:2000 with T-PBS containing BSA 5 mg/ml) was added at 100 μL/well, and shaken on a shaker at 37° C. for 0.5 hour of reaction. The liquid in the well was discarded and the plate was washed three times with T-PBS.
(§5) 5) 2 mg/ml of OPD color developing solution [diluted with 0.1 M citric acid-sodium citrate buffer (pH=5.4) containing 0.03% H2O2] was added at 100 μL/well and reacted for 1 to 10 minutes at 25° C. in the dark.
(§6) 6) 2M H2SO4 was added at 50 μL/well to stop the reaction, and a tunable wavelength microplate reader VERSAmax was used for reading at a wavelength of 490 nm.
(§7) The IC50 value was obtained by four-parameter regression using the software that came with the microplate reader. […]

AXL = AXL (Homo sapiens (Human), UniProt P30530); test: Enzyme selectivity test (ELISA), AXL; type: biochemical
AXL, sequence (P30530 26-894, species assumed): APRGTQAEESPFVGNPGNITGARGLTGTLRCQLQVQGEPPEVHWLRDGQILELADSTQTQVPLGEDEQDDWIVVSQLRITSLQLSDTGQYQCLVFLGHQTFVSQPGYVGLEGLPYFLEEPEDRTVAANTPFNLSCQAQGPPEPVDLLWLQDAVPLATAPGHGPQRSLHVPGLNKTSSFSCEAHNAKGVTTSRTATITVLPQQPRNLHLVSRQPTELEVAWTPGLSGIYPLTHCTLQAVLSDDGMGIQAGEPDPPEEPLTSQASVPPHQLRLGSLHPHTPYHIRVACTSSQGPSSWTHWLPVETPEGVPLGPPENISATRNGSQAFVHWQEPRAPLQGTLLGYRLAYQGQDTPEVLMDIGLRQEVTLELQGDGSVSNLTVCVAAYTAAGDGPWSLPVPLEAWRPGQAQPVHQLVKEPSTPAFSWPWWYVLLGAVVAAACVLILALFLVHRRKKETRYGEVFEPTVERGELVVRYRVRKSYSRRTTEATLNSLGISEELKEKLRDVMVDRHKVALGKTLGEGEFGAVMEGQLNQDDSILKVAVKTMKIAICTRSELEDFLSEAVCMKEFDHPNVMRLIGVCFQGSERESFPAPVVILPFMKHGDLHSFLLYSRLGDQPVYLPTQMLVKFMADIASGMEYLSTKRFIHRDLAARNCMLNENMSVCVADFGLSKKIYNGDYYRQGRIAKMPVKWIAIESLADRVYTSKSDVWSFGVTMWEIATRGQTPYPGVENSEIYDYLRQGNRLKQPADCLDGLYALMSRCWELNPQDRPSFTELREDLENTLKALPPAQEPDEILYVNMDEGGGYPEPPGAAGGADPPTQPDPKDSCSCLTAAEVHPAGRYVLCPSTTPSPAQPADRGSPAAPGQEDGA
Protocol: as §1, §2, §3, §4, §5, §6, §7

ALK = ALK (Homo sapiens (Human), UniProt Q9UM73); test: Enzyme selectivity test (ELISA), ALK; type: biochemical
ALK, sequence (Q9UM73 19-1620, species assumed): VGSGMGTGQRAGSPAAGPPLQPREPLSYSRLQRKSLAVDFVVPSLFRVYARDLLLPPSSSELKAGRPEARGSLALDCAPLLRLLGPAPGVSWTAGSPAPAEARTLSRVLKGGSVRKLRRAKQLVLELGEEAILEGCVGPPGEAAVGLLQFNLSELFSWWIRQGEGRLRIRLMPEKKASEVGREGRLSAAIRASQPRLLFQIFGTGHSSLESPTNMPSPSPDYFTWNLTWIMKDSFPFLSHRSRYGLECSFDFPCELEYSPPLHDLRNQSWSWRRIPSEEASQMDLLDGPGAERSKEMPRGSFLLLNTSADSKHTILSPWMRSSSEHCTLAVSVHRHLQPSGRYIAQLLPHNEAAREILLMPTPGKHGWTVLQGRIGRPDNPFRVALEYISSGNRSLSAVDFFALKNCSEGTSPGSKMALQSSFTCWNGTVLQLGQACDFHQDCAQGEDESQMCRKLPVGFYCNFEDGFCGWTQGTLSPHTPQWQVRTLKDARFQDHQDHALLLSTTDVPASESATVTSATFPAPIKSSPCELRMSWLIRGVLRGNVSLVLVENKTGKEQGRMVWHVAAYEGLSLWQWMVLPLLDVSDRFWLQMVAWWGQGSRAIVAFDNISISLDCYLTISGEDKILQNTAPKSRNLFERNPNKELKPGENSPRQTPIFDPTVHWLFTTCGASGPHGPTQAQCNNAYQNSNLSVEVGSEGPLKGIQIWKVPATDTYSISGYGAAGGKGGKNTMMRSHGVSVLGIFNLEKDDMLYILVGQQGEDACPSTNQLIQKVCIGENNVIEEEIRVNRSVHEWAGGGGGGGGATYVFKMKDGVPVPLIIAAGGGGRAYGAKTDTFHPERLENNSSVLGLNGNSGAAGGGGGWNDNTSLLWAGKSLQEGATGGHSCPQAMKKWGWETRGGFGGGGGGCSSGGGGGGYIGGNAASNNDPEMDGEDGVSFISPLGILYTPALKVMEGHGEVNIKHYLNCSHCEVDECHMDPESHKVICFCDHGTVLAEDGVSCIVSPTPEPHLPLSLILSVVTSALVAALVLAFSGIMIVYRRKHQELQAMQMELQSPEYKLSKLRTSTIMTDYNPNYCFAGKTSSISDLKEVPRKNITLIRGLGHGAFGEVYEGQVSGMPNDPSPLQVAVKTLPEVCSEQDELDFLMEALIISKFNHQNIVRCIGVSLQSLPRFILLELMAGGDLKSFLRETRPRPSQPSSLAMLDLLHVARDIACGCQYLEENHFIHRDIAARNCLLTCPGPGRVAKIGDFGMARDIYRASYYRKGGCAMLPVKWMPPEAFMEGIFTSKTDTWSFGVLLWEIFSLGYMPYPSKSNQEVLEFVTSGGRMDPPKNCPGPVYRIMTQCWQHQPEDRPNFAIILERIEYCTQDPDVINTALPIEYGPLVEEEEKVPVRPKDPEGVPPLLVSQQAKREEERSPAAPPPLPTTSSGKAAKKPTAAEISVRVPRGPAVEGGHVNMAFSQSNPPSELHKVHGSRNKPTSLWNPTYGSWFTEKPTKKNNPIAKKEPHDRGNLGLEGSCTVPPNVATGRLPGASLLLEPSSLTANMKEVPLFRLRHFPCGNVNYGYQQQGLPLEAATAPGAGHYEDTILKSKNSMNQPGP
Protocol: as §1, §2, §3, §4, §5, §6, §7

FGFR-1 = FGFR-1 (Homo sapiens (Human), UniProt P11362); test: Enzyme selectivity test (ELISA), FGFR-1; type: biochemical
FGFR-1, sequence (P11362 22-822, species assumed): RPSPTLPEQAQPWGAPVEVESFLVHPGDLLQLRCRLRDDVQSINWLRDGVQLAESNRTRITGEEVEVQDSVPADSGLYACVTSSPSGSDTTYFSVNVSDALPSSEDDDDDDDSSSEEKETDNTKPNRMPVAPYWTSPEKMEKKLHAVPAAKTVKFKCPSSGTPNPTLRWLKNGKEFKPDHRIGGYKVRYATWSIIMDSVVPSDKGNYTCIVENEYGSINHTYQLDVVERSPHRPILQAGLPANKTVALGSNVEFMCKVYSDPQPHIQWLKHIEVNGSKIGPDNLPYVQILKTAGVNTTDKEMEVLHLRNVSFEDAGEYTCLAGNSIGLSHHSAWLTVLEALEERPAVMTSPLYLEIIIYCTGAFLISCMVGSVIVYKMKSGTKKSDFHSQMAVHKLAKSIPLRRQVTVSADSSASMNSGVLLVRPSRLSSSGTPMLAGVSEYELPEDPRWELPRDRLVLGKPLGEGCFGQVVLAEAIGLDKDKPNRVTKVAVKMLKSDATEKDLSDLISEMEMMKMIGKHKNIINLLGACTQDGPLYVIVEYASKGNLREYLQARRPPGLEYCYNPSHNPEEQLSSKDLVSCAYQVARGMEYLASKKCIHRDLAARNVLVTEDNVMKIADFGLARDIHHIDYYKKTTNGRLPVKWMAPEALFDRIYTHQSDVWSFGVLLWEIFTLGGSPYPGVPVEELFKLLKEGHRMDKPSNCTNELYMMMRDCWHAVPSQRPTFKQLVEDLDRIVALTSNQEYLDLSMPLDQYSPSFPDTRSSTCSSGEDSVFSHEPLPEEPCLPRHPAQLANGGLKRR
Protocol: as §1, §2, §3, §4, §5, §6, §7

[1] = test system: mouse model of BLM-induced lung injury; test: Serum ALP and LDH levels; type: in vivo; details: mice
Description: Alkaline phosphatase (ALP) level and lactate dehydrogenase (LDH) level. An automatic blood indicator analyzer and related kits (alkaline phosphatase assay kit and lactate dehydrogenase assay kit) were used to measure related indicators.
Serum lactate dehydrogenase (LDH) and alkaline phosphatase (ALP) are important markers of inflammatory response of lung injury.

[2] = test system: mouse model of BLM-induced lung injury; test: mRNA levels of inflammatory cytokines in lung tissue (qRT-PCR); type: in vivo; details: mice, 30, 60, 90 mg/kg
Protocol: The experiment used qRT-PCR technology to determine the mRNA levels of pro-inflammatory cytokines in lung tissue. Real-time quantitative PCR was used to detect the mRNA levels of TNF-α, IL-6, IL-1β, TGF-β and others.
About 30 mg of cryopreserved lung tissue was weighed and homogenized and lysed by adding 200 μL of Trizol (Takara, 9109 #). The fluid after the lysis in the well was collected by the RNA sterilization-grade pipette tip and transferred to the corresponding sterile EP tube. […] of chloroform was added, shaken vigorously for 30 sec, and centrifuged for 15 minutes in a centrifuge at 4° C. at 12000 rpm. The upper aqueous layer was transferred to a new EP tube, an equal volume of isopropanol was used to precipitate the RNA in the aqueous phase, and the tube was allowed to stand at −20° C. for more than 1 hr. And then the tube was centrifuged for 15 min at 4° C. at 12000 rpm, and the supernatant was discarded. 75% ethanol was added to wash the RNA pellet, and then the tube was centrifuged for 15 min at 4° C. at 12000 rpm, and the supernatant was discarded. The tube was placed at room temperature for 10-20 min to dry the RNA pellet. 25-200 μL of RNase-free water was added for dissolution and stored at −80° C.
PrimeScript™ RT Master Mix (Takara, RR036A) was selected for mRNA reverse transcription. Please refer to the instructions for the system. […]

ErbB2, sequence (P04626 23-1255, species assumed): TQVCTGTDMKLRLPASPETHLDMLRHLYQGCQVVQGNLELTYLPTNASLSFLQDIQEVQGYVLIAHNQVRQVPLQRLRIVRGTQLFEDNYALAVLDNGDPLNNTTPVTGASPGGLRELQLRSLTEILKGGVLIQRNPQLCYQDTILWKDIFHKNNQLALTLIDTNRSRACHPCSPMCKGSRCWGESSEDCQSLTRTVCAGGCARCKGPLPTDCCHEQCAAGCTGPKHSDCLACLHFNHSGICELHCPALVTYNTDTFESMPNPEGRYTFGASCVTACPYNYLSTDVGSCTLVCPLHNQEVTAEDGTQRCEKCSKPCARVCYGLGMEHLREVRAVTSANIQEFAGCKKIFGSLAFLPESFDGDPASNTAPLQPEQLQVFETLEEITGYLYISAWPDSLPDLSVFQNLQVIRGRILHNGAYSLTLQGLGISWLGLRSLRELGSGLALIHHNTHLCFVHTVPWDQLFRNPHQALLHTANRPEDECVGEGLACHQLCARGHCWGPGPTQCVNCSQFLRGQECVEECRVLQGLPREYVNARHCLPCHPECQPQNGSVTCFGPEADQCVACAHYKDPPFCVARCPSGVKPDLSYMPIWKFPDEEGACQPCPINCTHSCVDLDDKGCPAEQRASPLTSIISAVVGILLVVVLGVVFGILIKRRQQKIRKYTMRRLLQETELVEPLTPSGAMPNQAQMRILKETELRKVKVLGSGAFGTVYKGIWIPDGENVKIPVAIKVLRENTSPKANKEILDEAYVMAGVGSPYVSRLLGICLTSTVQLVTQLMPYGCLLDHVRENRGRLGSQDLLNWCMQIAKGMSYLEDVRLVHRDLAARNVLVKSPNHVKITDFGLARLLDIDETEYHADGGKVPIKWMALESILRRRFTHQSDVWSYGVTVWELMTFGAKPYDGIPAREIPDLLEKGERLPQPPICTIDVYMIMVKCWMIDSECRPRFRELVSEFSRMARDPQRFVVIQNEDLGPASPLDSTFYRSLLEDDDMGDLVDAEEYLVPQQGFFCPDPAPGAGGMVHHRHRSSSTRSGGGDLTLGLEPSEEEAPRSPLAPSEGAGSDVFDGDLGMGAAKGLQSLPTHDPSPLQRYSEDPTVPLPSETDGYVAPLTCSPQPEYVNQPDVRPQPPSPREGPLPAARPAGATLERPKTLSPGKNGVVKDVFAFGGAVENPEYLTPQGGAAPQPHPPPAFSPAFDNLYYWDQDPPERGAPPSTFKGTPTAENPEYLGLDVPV

O=C(Nc1cccc(C(F)(F)F)c1)c1ccc(C2CC2)c(-c2ccc3nc(Nc4cnn(C5CC5)c4)ncc3c2)c1 [Compound S15, 4-cyclopropyl-3-(2-((1-cyclopropyl-1H-pyrazol-4-yl)amino)quinazolin-6-yl)-N-(3-(trifluoromethyl)phenyl)benzamide]
IC50 (ErbB2): > 1000 nM | IC50 (AXL): > 1000 nM | IC50 (ALK): > 1000 nM | IC50 (FGFR-1): > 10 nM | ALP serum level [1]: inhibit the level of ALP more effectively than nintedanib | LDH serum level ([1]; 90 mg/kg high dose group): effectively inhibit serum LDH level | mRNA levels of pro-inflammatory cytokines TNF-α, IL-1β and IL-6 in lung tissue [2]: significantly reduce the levels of pro-inflammatory cytokines in a dose-dependent manner

Source: patent publication US11655239B2 (SHANGHAI INSTITUTE OF MATERIAL MEDICA, CHINESE ACADEMY OF …, priority 2019, dated 2023)
